Where “and” joins values, the source holds several entries; their conditions need not be identical. Identical values can stand only once.

This is an account of results in publication PMC3338484.

In assay [1] the target is T1, PaFolD (Pseudomonas aeruginosa, UniProt Q9I2U6).
T1 construct: hexa-histidine tag with TEV protease site (N, cleaved yes); made in house; host or cells: E. coli BL21 (DE3)
Nature of the assay: FolD enzyme assay (absorbance at 350 nm), IC50 determination. It counts as biochemical. The note with it: for Hill coefficient: from PaFolD IC50 curves. The method, then: Enzyme activity was assayed by measuring the absorbance at 350 nm of the intermediate product in the reaction, N ^5,N ^10-methenyl-THF, following acidification of the reaction and consequent reconversion of the final product formyl-THF to the intermediate. Following optimization of the assay buffer and determination of the enzyme linearity, assays were carried out at room temperature in a 50 µL reaction volume containing 25 mM bicine, pH 7.9, 1 mM dithiothreitol, 0.05% CHAPS, 0.2 mg mL^−1 BSA, 1 nM recombinant FolD, […] NADP^+ and 35 µM N ^5,N ^10-methylene-THF. Michaelis constants for the two substrates (NADP^+ and N ^5,N ^10-methylene-THF) were determined in an end-point assay, using these buffer and enzyme conditions.
The HTS was performed with a compound collection of 79,029 diverse structures based around 4000 chemical scaffolds. All compounds were dissolved in 100% DMSO to a concentration of 3 mM. Single point inhibition assays were carried out at room temperature in clear, flat bottom, polystyrene, 384-well plates (Matrix). Each assay was performed in a 50 µL reaction volume as described above. A standard compound (0.5 µL in DMSO) was transferred to all assay plates using a Cartesian Hummingbird (Genomics Solutions) before 25 µL of a reaction mix, containing all assay components except NADP^+ and N ^5,N ^10-methylene-THF, was added to assay plates using a Thermo Scientific Well-Mate (Matrix). The reaction was initiated and stopped with the additions of 25 µL of substrate and 50 µL of 1 M HCl, respectively, again using a Well-Mate. The FolD assay was run at room temperature for 20 min and the signal was allowed to develop for 10 min before the absorbance of each well was read at 350 nm using an EnVision multilabel plate reader (PerkinElmer Life Sciences). ActivityBase (ID Business Solutions) was used for data processing and analysis.
Compounds of interest were cherry picked from the original library plates using a series of 10-point inhibitor curves (consisting of half-log serial dilutions of compound in DMSO) and prepared in 384-well plates using a JANUS workstation (PerkinElmer Life Sciences). Each compound plate produced 10-point inhibitor curves for 30 test compounds and two curves for LY374571, the standard compound in this screen (see following paragraph for inhibitor details). Following preparation of the inhibitor curves, assays were carried out as described above. ActivityBase was again used for data processing and analysis. All IC50 curve fitting was undertaken within ActivityBase XE utilizing the underlying ‘MATH IQ’ engine of XLfit version 5.1.0.0. A four-parameter logistic dose-response curve was utilized for compound potency determination.
Enzyme activity was assayed in an optimised buffer at 1 nM PaFolD. […] When saturating concentrations of either substrate or co-factor were required N ^5,N ^10-methylene-THF was used at 250 µM and NADP^+ at 1 mM. For screening the compound library N ^5,N ^10-methylene-THF was fixed at a concentration of 35 µM and NADP^+ was saturating at 1 mM and the assay was stopped after 20 minutes (within the linear range of the assay).

Assay [2] deals with T1, PaFolD. Nature of the assay: Surface plasmon resonance (SPR) binding to biotinylated PaFolD. The note with it: for binding to PaFolD by SPR: running buffer with 1 mM NADP+, 1% DMSO, data not shown; for rate of association (SPR): association measured for 1 min, LY374571 could not compete off this binding. The method, then:
For analysis of compounds using SPR it was necessary to produce an expression system that provided a protein carrying a biotinylation acceptor peptide (BAP-tag). This BAP-tag peptide has the sequence 5′ - […] - 3′ and is specifically biotinylated by the E. coli biotin holoenzyme synthetase, BirA. The modified PaFolD was then purified as before. Subsequently 30 µM of BAP-tagged PaFolD was incubated at 37°C overnight in buffer C (10 mM Tris-HCl pH 7.5, 200 mM KCl, 5 mM MgCl2, 100 µM d-biotin) containing 500 µM ATP and 1 µM BirA. The sample was passed through a HisTrap HP column equilibrated with buffer A to remove BirA. The flow through was collected and concentrated (Amicon 10 kDa MWCO spin column) to remove free biotin. The incorporation of biotin was monitored by MALDI-TOF analysis performed at the University of Dundee ‘Fingerprints’ Proteomics Facility using an Applied Biosystems Voyager DE-STR spectrometer. The biotinylated protein was flash frozen at 10 mg mL^−1 in 50 mM Tris-HCl, 250 mM NaCl, 15% glycerol, pH 7.5 and stored at −80°C until required.
A Biacore T100 instrument (GE Healthcare) was used for all SPR experiments. Biotinylated PaFolD was diluted 50-fold into a running buffer containing 50 mM Tris-HCl, pH 7.5, 150 mM NaCl, 5 mM MgCl2, 1 mM DTT, 0.05% Tween 20, 1 mM NADP^+ and 1% DMSO and injected over a streptavidin chip (GE Healthcare) at a flow rate of 10 µL min^−1 for 10 min to obtain a density of ∼4,000 response units. Compounds DDD55519 and DDD61461 were injected in duplicates at three-fold concentration series 136 nM–11 µM at a flow rate 30 µL min^−1. Association was measured for 1 min and dissociation for 20 min. Compounds DDD32388 and DDD58331 were injected at three-fold concentration series of between 1.23 µM–100 µM at a flow rate 30 µL min^−1. Association was measured for 1 min and dissociation 2 min. Data were referenced from a blank streptavidin surface and blank injections of buffer. Processing was carried out using Scrubber 2 software (BioLogic Software, Australia).
(In SPR one partner is held on a chip, and binding of the other changes the refractive index at the surface.)

The target in assay [3] is T1, PaFolD. Put plainly: Differential scanning fluorimetry (DSF) thermal shift screen. The note with it: standards at 250 µM; 4 µM PaFolD, 4 mM NADP+. It counts as binding. The text has this:
It was reasoned that such conditions would favour crystallization. In addition two compound libraries, the Maybridge fragment set and the Prestwick collection of biologically active molecules, were screened after first assessing the suitability of the method for PaFolD, the optimum buffer and cofactor conditions and the lowest concentration of protein that generated a strong signal as previously described for our laboratory. An Mx3005p RT PCR system (Stratagene) was used to monitor protein unfolding by the increase in fluorescence of SYPRO Orange dye (Invitrogen). Briefly, the enzyme was tested against 1000 compounds from the Maybridge Rule of Three (Ro3) fragment library and 1120 compounds from the Prestwick Chemical Library. Assays were carried out in 40 µL volumes with PaFolD at 4 µM, supplemented with 4 mM NADP^+ in 50 mM Tris-HCl, 250 mM NaCl, pH 7.5 in 96 well RT PCR plates (Abgene). […] After each 1°C increase the sample was excited at 492 nm and fluorescence emissions recorded at 610 nm. […]
In advance of performing a large-scale HTS, PaFolD was assayed combining DSF with the Prestwick Chemical Library of drug-like molecules (1,200 compounds) and a bespoke Maybridge RO3 fragment library of 1,000 compounds. […] A number of compounds in the Prestwick library gave apparent thermal shifts of approximately +10°C, however all of these were rejected due to their intrinsic fluorescence. […]

Assay [4] deals with P. aeruginosa PAO1 ATCC 15692. Put plainly: Disc diffusion sensitivity testing. The assay is classed as cell-based, Pseudomonas aeruginosa. The note with it: for clearance in disc diffusion sensitivity assay: six dilutions, approximately 115 µg to 4.5 ng per disc, zones measured after 16 and 48 hours, data not shown. As for the experimental part: Compounds identified by HTS were used in a disc diffusion sensitivity test against P. aeruginosa. Briefly a single colony of P. aeruginosa PAO1 ATCC 15692 was used to inoculate a 2 mL volume of LB media prior to overnight growth at 37°C. The bacteria were then diluted 1∶100 fold prior to 100 µL volumes plated onto Iso-Sensitest agar plates and dried in air for 5 minutes. Eight 3 mm discs were impregnated with 5 µl of compound, dissolved in DMSO, prior to loading onto each plate. Two controls were used per plate, one a 100% DMSO stock, the other a 10 µg stock of gentamycin. Six compound dilutions were tested per plate, ranging from approximately 115 µg to 4.5 ng. Three compounds with known antifolate activity were tested, namely methotrexate, LY354899 and LY374571 in addition to the three singletons, DDD32388, DDD55519 and DDD61461, and two of the biaryl sulphonamide series that had been identified. Plates were incubated at 37°C, and zones of inhibition measured after 16 and 48 hours.

For assay [5], the system named is HsFolD. The note with it: slightly different assay conditions; read-out: IC50 against HsFolD; cited from earlier work.
Setting [6] is: IC50 (μM), confirmed HTS hits, ten-point dose response, 30 µM to 1 nM.

T1 sequence (Q9I2U6 whole entry): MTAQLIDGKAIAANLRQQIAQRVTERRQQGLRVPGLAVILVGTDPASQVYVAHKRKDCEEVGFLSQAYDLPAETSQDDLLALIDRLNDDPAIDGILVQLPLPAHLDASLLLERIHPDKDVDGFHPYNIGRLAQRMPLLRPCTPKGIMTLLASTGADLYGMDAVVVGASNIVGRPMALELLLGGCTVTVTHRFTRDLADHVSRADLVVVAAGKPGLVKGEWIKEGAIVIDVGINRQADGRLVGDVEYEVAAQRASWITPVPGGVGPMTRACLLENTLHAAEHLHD

As a reminder, the Hill coefficient is the slope factor of the fitted curve. As for `CCOc1nc(N)nc(N)c1S(=O)(=O)c1ccc(Cl)cc1` [DDD32388], the IC50 in assay [1] (setting [6]) was found to be 0.9 µM. In addition, in assay [1], the Hill coefficient is 1.6. In addition, in assay [2], the “binding to PaFolD by SPR” value was “weak”.
In assay [1] (setting [6]), `Cc1[nH]c2c(C#N)cnn2c(=O)c1Cc1ccccc1` [DDD55519] showed an IC50 of 3.8 µM. This compound showed a Hill coefficient in assay [1] of 1.2. Further, in assay [2], the “rate of association (SPR)” value is on record as “slow rates of association” and the “binding to PaFolD by SPR” value was “confirmed”.
`Oc1cc(C(F)(F)F)nc(SCc2c(F)cccc2Cl)n1` [DDD61461]: the IC50 in assay [1] (setting [6]) stood at 2.5 µM. In assay [1], this compound registered a Hill coefficient of 2.6. Also, in assay [2], the “rate of association (SPR)” value is on record as “slow rates of association” and the “binding to PaFolD by SPR” value is reported as “confirmed”.
Take `Nc1nc2c(c(=O)[nH]1)N1C(=O)N(c3ccc(C(=O)N[C@@H](CCC(=O)O)C(=O)O)cc3)CC1CN2` (stereo partly shown) [LY354899, 5,6,7,8-tetrahydro-N ^5,N ^10-carbonylfolic acid]: the thermal shift result in assay [3] is “+9 °C”. For the same compound, in assay [4], the “clearance in disc diffusion sensitivity assay” value is reported as “failed to give any clearance”.
By ΔTm is commonly meant the change in melting temperature against a reference sample. `Nc1nc(O)c(N)c(NC(=O)Nc2ccc(C(=O)N[C@H](CCC(=O)O)C(=O)O)cc2)n1` [LY374571, (2R)-2-[(4-{[(2,5-diamino-6-hydroxypyrimidin-4-yl)carbamoyl]amino}phenyl)formamido] pentanedioic acid]: in assay [3], the thermal shift (ΔTm) at 250 µM was determined as 15 °C. Also, the IC50 in assay [1] (IC50 against PaFolD, 1 nM PaFolD, 35 µM N5,N10-methylene-THF, 1 mM NADP+, 20 min) was ~0.03 µM and 0.027 µM; in assay [5], 3 nM. Further, in assay [4], the “clearance in disc diffusion sensitivity assay” value is recorded as “failed to give any clearance”.
By Km is commonly meant the concentration of substrate that gives half-maximal velocity. In the case of `NC(=O)c1ccc[n+]([C@@H]2O[C@H](COP(=O)([O-])OP(=O)(O)OC[C@H]3O[C@@H](n4cnc5c(N)ncnc54)[C@H](OP(=O)(O)O)[C@@H]3O)[C@@H](O)[C@H]2O)c1` [NADP^+], in assay [1] (1 nM PaFolD, end-point assay, other substrate saturating, mean ± SD (n = 4), read-out: Michaelis constant (Km)), the Km worked out at 179 ± 11 µM.
On to gentamycin, for which, in assay [4] (10 µg stock control disc, P. aeruginosa PAO1), the “radius cleared (zone of inhibition)” value is listed as 13 mm.
